According to paper PMC4076210, “Discovery of Novel AKT Inhibitors with Enhanced Anti-Tumor Effects in Combination with the MEK Inhibitor” (PLoS ONE, 2014):
Like-named read-outs stand apart in the source and are kept apart here.

Legend:
Assay in all cases: Kinase panel
Format in all cases: biochemical
NLK(h) = target: T1, NLK(h) (Homo sapiens, UniProt Q9UBE8)
T1 construct: purchased Millipore KinaseProfiler
T1 sequence (Q9UBE8 1-527): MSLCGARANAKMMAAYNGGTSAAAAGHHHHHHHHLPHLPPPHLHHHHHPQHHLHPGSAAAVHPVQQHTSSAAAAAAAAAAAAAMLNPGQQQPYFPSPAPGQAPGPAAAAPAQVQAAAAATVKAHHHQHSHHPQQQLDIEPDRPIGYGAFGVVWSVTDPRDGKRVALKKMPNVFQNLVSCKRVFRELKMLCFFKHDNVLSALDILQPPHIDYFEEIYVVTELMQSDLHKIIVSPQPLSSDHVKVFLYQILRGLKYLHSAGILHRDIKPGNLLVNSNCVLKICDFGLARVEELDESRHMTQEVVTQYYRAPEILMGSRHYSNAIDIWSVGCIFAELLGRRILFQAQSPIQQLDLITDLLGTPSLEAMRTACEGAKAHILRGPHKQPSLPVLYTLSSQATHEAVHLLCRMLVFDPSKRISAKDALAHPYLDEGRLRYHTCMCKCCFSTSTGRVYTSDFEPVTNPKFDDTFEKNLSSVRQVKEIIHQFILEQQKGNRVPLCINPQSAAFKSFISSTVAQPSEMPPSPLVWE

EphB1(h) = target: T2, EphB1(h) (Homo sapiens, UniProt P54762)
T2 construct: purchased Millipore KinaseProfiler
T2 sequence (P54762 18-984): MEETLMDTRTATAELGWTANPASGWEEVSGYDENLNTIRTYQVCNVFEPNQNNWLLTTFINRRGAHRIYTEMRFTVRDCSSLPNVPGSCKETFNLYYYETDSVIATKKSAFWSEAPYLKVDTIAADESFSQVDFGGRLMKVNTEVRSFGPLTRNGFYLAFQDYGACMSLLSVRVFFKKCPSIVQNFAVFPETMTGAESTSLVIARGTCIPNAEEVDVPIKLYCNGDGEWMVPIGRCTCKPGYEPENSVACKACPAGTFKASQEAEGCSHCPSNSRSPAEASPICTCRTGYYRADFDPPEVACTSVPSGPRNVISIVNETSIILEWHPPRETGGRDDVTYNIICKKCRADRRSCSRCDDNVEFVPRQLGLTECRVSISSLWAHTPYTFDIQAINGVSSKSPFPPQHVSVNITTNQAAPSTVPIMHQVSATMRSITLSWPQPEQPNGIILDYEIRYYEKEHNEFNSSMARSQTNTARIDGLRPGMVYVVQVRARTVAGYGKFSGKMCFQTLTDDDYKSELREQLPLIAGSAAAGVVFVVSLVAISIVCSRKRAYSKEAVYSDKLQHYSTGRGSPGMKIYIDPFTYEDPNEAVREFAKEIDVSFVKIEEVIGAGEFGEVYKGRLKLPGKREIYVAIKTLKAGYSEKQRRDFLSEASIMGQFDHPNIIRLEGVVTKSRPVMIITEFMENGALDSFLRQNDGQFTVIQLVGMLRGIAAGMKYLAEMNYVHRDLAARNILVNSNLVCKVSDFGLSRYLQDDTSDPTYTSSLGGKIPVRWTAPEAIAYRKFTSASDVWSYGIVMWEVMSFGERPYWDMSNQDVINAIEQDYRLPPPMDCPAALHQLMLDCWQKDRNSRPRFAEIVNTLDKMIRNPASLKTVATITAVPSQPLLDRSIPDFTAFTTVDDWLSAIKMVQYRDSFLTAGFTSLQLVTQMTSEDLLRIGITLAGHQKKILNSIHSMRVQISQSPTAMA

NEK11(h) = target: T3, NEK11(h) (Homo sapiens, UniProt Q8NG66)
T3 construct: purchased Millipore KinaseProfiler
T3 sequence (Q8NG66 1-645): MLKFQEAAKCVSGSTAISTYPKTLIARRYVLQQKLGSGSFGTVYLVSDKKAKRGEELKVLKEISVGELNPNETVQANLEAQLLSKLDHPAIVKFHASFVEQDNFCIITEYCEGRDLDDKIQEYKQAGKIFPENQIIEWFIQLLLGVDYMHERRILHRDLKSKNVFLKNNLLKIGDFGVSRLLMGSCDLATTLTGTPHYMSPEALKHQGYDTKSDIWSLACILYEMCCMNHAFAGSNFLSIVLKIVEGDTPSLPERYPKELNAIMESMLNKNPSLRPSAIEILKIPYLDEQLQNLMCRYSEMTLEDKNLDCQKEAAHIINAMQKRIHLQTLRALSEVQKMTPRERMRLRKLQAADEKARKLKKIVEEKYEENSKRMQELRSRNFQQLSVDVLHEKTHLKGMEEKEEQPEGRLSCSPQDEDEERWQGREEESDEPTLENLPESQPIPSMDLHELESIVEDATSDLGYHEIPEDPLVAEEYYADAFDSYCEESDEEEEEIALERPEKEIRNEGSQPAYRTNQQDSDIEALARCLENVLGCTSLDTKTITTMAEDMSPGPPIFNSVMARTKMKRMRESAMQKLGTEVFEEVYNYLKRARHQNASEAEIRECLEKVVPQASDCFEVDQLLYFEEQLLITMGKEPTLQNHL

MKK7β(h) = target: T4, MKK7β(h) (Homo sapiens, UniProt O14733)
T4 construct: purchased Millipore KinaseProfiler
T4 sequence (O14733 1-419): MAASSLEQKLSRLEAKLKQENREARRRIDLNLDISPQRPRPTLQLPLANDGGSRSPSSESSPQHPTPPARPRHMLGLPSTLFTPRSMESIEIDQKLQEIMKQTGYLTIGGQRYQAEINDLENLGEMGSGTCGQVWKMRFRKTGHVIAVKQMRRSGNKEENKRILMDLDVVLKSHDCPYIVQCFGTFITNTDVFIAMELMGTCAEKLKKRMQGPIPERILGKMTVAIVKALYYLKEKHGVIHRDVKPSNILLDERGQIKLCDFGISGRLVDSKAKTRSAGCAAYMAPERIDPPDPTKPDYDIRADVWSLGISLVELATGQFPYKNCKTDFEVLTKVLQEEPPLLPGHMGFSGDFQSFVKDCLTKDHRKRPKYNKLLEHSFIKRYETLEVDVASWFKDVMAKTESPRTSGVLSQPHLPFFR

GRK5(h) = target: T5, GRK5(h) (Homo sapiens, UniProt P34947)
T5 construct: purchased Millipore KinaseProfiler

PKA(h) = target: T6, PKA(h) (Homo sapiens, UniProt P17612)
T6 construct: purchased Millipore KinaseProfiler

T5 sequence (P34947 whole entry): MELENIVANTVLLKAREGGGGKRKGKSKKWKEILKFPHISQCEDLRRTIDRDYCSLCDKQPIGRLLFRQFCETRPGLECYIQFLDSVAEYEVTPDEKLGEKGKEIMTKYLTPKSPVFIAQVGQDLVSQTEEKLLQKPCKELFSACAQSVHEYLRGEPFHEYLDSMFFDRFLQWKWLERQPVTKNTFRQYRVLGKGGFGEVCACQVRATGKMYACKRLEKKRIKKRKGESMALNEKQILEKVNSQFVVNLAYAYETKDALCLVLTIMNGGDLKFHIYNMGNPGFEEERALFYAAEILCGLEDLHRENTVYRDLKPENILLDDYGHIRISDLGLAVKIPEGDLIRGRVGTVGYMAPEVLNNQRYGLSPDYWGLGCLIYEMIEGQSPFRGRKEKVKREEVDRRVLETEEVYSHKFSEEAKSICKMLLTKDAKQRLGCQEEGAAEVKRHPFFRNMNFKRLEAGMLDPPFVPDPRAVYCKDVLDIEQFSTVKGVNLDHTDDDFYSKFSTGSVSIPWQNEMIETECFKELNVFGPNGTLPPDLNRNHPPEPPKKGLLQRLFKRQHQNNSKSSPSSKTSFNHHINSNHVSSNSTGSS

## Cn1ncc(Cl)c1-c1cc(C(=O)N[C@H](CN)Cc2cccc(F)c2)sc1Cl [GSK2110183]
NLK(h)
  inhibition at 0.5 µM: -8%
  inhibition at 10 µM: 32%
EphB1(h)
  inhibition at 0.5 µM: -2%
  inhibition at 10 µM: -4%
NEK11(h)
  inhibition at 0.5 µM: -13%
  inhibition at 10 µM: -11%
MKK7β(h)
  inhibition at 0.5 µM: 12%
  inhibition at 10 µM: 28%
GRK5(h)
  inhibition at 0.5 µM: -8%
  inhibition at 10 µM: -1%
PKA(h)
  inhibition at 0.5 µM: 94%
  inhibition at 10 µM: 96%

## Cn1ncc(Cl)c1-c1cc(C(=O)N[C@H](CN)Cc2ccc(F)c(F)c2)oc1Cl [GSK2141795]
NLK(h); 0.5 µM, read-out: % Inhibition
  inhibition at 0.5 µM: 4%
NLK(h); 10 µM, read-out: % Inhibition
  inhibition at 10 µM: 46%
EphB1(h); 0.5 µM, read-out: % Inhibition
  inhibition at 0.5 µM: -5%
EphB1(h); 10 µM, read-out: % Inhibition
  inhibition at 10 µM: -5%
NEK11(h); 0.5 µM, read-out: % Inhibition
  inhibition at 0.5 µM: -11%
NEK11(h); 10 µM, read-out: % Inhibition
  inhibition at 10 µM: -2%
MKK7β(h); 0.5 µM, read-out: % Inhibition
  inhibition at 0.5 µM: -13%
MKK7β(h); 10 µM, read-out: % Inhibition
  inhibition at 10 µM: -30%
GRK5(h); 0.5 µM, read-out: % Inhibition
  inhibition at 0.5 µM: 4%
GRK5(h); 10 µM, read-out: % Inhibition
  inhibition at 10 µM: 43%
PKA(h); 0.5 µM, read-out: % Inhibition
  inhibition at 0.5 µM: 99%
PKA(h); 10 µM, read-out: % Inhibition
  inhibition at 10 µM: 97%
